Test results reported in patent publication US9067934B2, “Bicyclic pyridinones” (Pfizer Inc., priority 2011, dated 2015).
Structures can show the parent of a compound that is named as a salt.

Tested on: production of amyloid beta protein Aβ(1-42) (γ-secretase) in human WT-APP overexpressing CHO cells
Assay: Cell-Based γ-Secretase Assay with ELISA Readout
Details: human WT-APP overexpressing CHO cells, ~24 hours at 37° C., Aβ(1-42) ELISA; footnotes: a = geometric mean of >15 determinations, b = single determination, c = geometric mean of 7-15 determinations; read-out: Aβ 42B IC50 (Geometric Mean of 2-6 Determinations)
Method: Cell-Based γ-Secretase Assay with ELISA Readout
The ability of compounds to modulate production of amyloid beta protein Aβ(1-42) was determined using human WT-APP overexpressing CHO cells. Cells were plated at 22,000 cells/100 μL well in 96 well tissue culture treated, clear plates (Falcon) in DMEM/F12 based medium and incubated for 24 hours at 37° C. Compounds for testing were diluted in 100% DMSO to achieve an eleven points, half log, dose response for IC50 determinations. Compounds were added in fresh medium to achieve 1% final DMSO. Appropriate vehicle or inhibitor controls were added into control wells individually to obtain minimum or maximum inhibition values, respectively, for the assay signal window before the plates were incubated for ˜24 hours at 37° C. This procedure produces conditioned media in each well which is tested for Aβ(1-42) levels in the ELISA detection step described next. The remaining cell cultures in each well are also tested for cell toxicity as described below.
Coating of ELISA assay plates was initiated by addition of 50 μL/well of an in-house Aβ(1-42) specific antibody at (3 μg/mL) in 0.1 M NaHCO3 (pH 9.0) into black 384-well Maxisorp® plates (Nunc) and incubated overnight at 4° C. The capture antibody was then aspirated from the ELISA assay plates and plates were washed 4×100 μL with Wash Buffer (Dulbecco's PBS, 0.05% Tween 20). 90 μL/well of Blocking Buffer (Dulbecco's PBS, 1.0% BSA (Sigma A7030)) was then added to plates. Ambient temperature incubation was allowed to proceed for a minimum of two hours. Blocking buffer was then removed and 20 μL/well Assay Buffer (Dulbecco's PBS, 1.0% BSA (Sigma A7030), 0.05% Tween 20) was then added. At this point, 40 μL (in duplicate) of experimental conditioned media (described above) were transferred into wells of the blocked ELISA plates containing the capture antibody, followed by overnight incubation at 4° C. Cell toxicity was also measured in the corresponding remaining cells after removal of the conditioned media for the Aβ(1-42) assay by a colorimetric cell proliferation assay (CellTiter 96® AQueous One Solution Cell Proliferation Assay, Promega) according to the manufacturer's instructions.
After overnight incubation of the ELISA assay plates at 4° C., unbound Aβ peptides were removed via (4×100 μL) washes with Wash Buffer. Europium (Eu) labeled (custom labeled, Perkin Elmer) Aβ(1-16) 6e10 Monoclonal Antibody (Covance #SIG-39320) was added, (50 μL/well Eu-6e10 @ 1:10,000, 20 uM EDTA) in Assay Buffer. Incubation at ambient temperature for a minimum of 2 hours was followed by (4×100 μL) washes with Wash Buffer, before 30 μL/well of Delfia Enhancement Solution (Perkin Elmer) was added. Following an one hour ambient temperature incubation, the plates were read on an EnVision plate reader (Perkin Elmer) using standard DELFIA TRF settings. Data analysis including inhibitory IC50 determination was performed using nonlinear regression fit analysis (in-house software) and the appropriate plate mean values for the maximum and minimum inhibition controls.

For `Cc1cn(-c2ccc3n(c2=O)CCN(CCOc2cccc4c(Cl)ccc(Cl)c24)C3=O)cn1` [Example 46, 2-{2-[(5,8-dichloro-1-naphthyl)oxy]ethyl}-7-(4-methyl-1H-imidazol-1-yl)-3,4-dihydro-2H-pyrido[1,2-a]pyrazine-1,6-dione, trifluoroacetate salt], which IC50 is on record?
The IC50 was 0.00938 µM.

With `Cc1cn(-c2ccc3n(c2=O)CCN(CCOc2ccnc4cc(C(F)(F)F)c(Cl)cc24)C3=O)cn1` [Example 47, 2-(2-{[6-chloro-7-(trifluoromethyl)quinolin-4-yl]oxy}ethyl)-7-(4-methyl-1H-imidazol-1-yl)-3,4-dihydro-2H-pyrido[1,2-a]pyrazine-1,6-dione] as the molecule, how does the IC50 read?
Its IC50 is 0.00948 µM.

Which IC50 does the source give for `Cc1cn(-c2ccc3n(c2=O)CCN(CCOc2ccc(F)cc2-c2ccnc(C(F)(F)F)c2)C3=O)cn1` [Example 48, 2-(2-{4-fluoro-2-[2-(trifluoromethyl)pyridin-4-yl]phenoxy}ethyl)-7-(4-methyl-1H-imidazol-1-yl)-3,4-dihydro-2H-pyrido[1,2-a]pyrazine-1,6-dione] here?
Its IC50 is 0.143 µM.

With `Cc1cn(-c2ccc3n(c2=O)CCN(CCOc2ccccc2-c2cc(C(F)(F)F)[nH]n2)C3=O)cn1` [Example 49, 7-(4-methyl-1H-imidazol-1-yl)-2-(2-{2-[5-(trifluoromethyl)-1H-pyrazol-3-yl]phenoxy}ethyl)-3,4-dihydro-2H-pyrido[1,2-a]pyrazine-1,6-dione] as the molecule, how does the IC50 read?
The IC50 was 0.178 µM.

Which IC50 does the source give for `Cc1cn(-c2ccc3n(c2=O)CCN(CCOc2ccc(Cl)cc2-n2ccc(C(F)(F)F)n2)C3=O)cn1` [Example 50, 2-(2-{4-chloro-2-[3-(trifluoromethyl)-1H-pyrazol-1-yl]phenoxy}ethyl)-7-(4-methyl-1H-imidazol-1-yl)-3,4-dihydro-2H-pyrido[1,2-a]pyrazine-1,6-dione, trifluoroacetate salt] here?
The IC50 was 0.0293 µM.

For `Cc1cn(-c2ccc3n(c2=O)CCN(CCOc2cc(C(F)(F)F)nc4c(C)ccc(Cl)c24)C3=O)cn1` [Example 51, 2-(2-{[5-chloro-8-methyl-2-(trifluoromethyl)quinolin-4-yl]oxy}ethyl)-7-(4-methyl-1H-imidazol-1-yl)-3,4-dihydro-2H-pyrido[1,2-a]pyrazine-1,6-dione], which IC50 is on record?
Its IC50 is 0.02 µM.

`Cc1cn(-c2ccc3n(c2=O)CCN(CCOc2ccc(F)cc2-c2csc(C(F)(F)F)n2)C3=O)cn1` [Example 52, 2-(2-{4-fluoro-2-[2-(trifluoromethyl)-1,3-thiazol-4-yl]phenoxy}ethyl)-7-(4-methyl-1H-imidazol-1-yl)-3,4-dihydro-2H-pyrido[1,2-a]pyrazine-1,6-dione] was tested. Which IC50 did it give?
Its IC50 is 0.0235 µM.

How did the IC50 turn out when `Cc1cn(-c2ccc3n(c2=O)CCN(CCOc2cccc4cc(F)ccc24)C3=O)cn1` [Example 53, 2-{2-[(6-fluoro-1-naphthyl)oxy]ethyl}-7-(4-methyl-1H-imidazol-1-yl)-3,4-dihydro-2H-pyrido[1,2-a]pyrazine-1,6-dione, trifluoroacetate salt] was run?
The IC50 was 0.0262 µM.

How did the IC50 turn out when `COc1ccc(-c2cc(C(F)(F)F)[nH]n2)c(OCCN2CCn3c(ccc(-n4cnc(C)c4)c3=O)C2=O)c1` [Example 54, 2-(2-{5-methoxy-2-[5-(trifluoromethyl)-1H-pyrazol-3-yl]phenoxy}ethyl)-7-(4-methyl-1H-imidazol-1-yl)-3,4-dihydro-2H-pyrido[1,2-a]pyrazine-1,6-dione] was run?
The IC50 was 0.215 µM.

How did the IC50 turn out when `Cc1cn(-c2ccc3n(c2=O)CCN(C(C)COc2ccc(F)cc2C(F)(F)F)C3=O)cn1` (stereo not shown) [Example 55, 2-{2-[4-fluoro-2-(trifluoromethyl)phenoxy]-1-methylethyl}-7-(4-methyl-1H-imidazol-1-yl)-3,4-dihydro-2H-pyrido[1,2-a]pyrazine-1,6-dione, formate salt] was run?
The IC50 was 0.168 µM.

How did the IC50 turn out when `Cc1cn(-c2ccc3n(c2=O)CCN(CCOc2cc(C(F)(F)F)nn2-c2ccc(F)cc2C)C3=O)cn1` [Example 56, 2-(2-{[1-(4-fluoro-2-methylphenyl)-3-(trifluoromethyl)-1H-pyrazol-5-yl]oxy}ethyl)-7-(4-methyl-1H-imidazol-1-yl)-3,4-dihydro-2H-pyrido[1,2-a]pyrazine-1,6-dione] was run?
Its IC50 is 0.399 µM.

With `Cc1cn(-c2ccc3n(c2=O)CCN([C@@H](C)COc2ccc(F)cc2C(F)(F)F)C3=O)cn1` [Example 57, 2-{(1S)-2-[4-fluoro-2-(trifluoromethyl)phenoxy]-1-methylethyl}-7-(4-methyl-1H-imidazol-1-yl)-3,4-dihydro-2H-pyrido[1,2-a]pyrazine-1,6-dione] as the molecule, how does the IC50 read?
Its IC50 is 0.113 µM.

For `Cc1cn(-c2ccc3n(c2=O)CCN(CCOc2ccccc2-c2cc(C(F)F)no2)C3=O)cn1` [Example 58, 2-(2-{2-[3-(difluoromethyl)isoxazol-5-yl]phenoxy}ethyl)-7-(4-methyl-1H-imidazol-1-yl)-3,4-dihydro-2H-pyrido[1,2-a]pyrazine-1,6-dione, trifluoroacetate salt], which IC50 is on record?
The IC50 was 0.0721 µM.

With `Cc1cn(-c2ccc3n(c2=O)CCN(CCOc2ccc(Cl)cc2-c2cc(C(F)(F)F)[nH]n2)C3=O)cn1` [Example 59, 2-(2-{4-chloro-2-[5-(trifluoromethyl)-1H-pyrazol-3-yl]phenoxy}ethyl)-7-(4-methyl-1H-imidazol-1-yl)-3,4-dihydro-2H-pyrido[1,2-a]pyrazine-1,6-dione] as the molecule, how does the IC50 read?
Its IC50 is 0.53 µM.

How did the IC50 turn out when `COc1cccc2c(OCCN3CCn4c(ccc(-n5cnc(C)c5)c4=O)C3=O)cccc12` [Example 60, 2-{2-[(5-methoxy-1-naphthyl)oxy]ethyl}-7-(4-methyl-1H-imidazol-1-yl)-3,4-dihydro-2H-pyrido[1,2-a]pyrazine-1,6-dione, trifluoroacetate salt] was run?
Its IC50 is 0.0333 µM.

For `Cc1cn(-c2ccc3n(c2=O)CCN(CCOc2ccnc4cc(C(F)(F)F)ccc24)C3=O)cn1` [Example 61, 7-(4-methyl-1H-imidazol-1-yl)-2-(2-{[7-(trifluoromethyl)quinolin-4-yl]oxy}ethyl)-3,4-dihydro-2H-pyrido[1,2-a]pyrazine-1,6-dione], which IC50 is on record?
The IC50 was 0.108 µM.

Which IC50 does the source give for `Cc1cn(-c2ccc3n(c2=O)CCN(CCOc2cc(C(F)(F)F)nc4c(C)cc(Cl)cc24)C3=O)cn1` [Example 62, 2-(2-{[6-chloro-8-methyl-2-(trifluoromethyl)quinolin-4-yl]oxy}ethyl)-7-(4-methyl-1H-imidazol-1-yl)-3,4-dihydro-2H-pyrido[1,2-a]pyrazine-1,6-dione] here?
Its IC50 is 0.0397 µM.

For `Cc1cn(-c2ccc3n(c2=O)CCN(CCOc2cc(C(F)(F)F)nc4c(Cl)cccc24)C3=O)cn1` [Example 63, 2-(2-{[8-chloro-2-(trifluoromethyl)quinolin-4-yl]oxy}ethyl)-7-(4-methyl-1H-imidazol-1-yl)-3,4-dihydro-2H-pyrido[1,2-a]pyrazine-1,6-dione], which IC50 is on record?
The IC50 was 0.0766 µM.

With `COc1ccc2c(OCCN3CCn4c(ccc(-n5cnc(C)c5)c4=O)C3=O)cccc2c1F` [Example 64, 2-{2-[(5-fluoro-6-methoxy-1-naphthyl)oxy]ethyl}-7-(4-methyl-1H-imidazol-1-yl)-3,4-dihydro-2H-pyrido[1,2-a]pyrazine-1,6-dione, trifluoroacetate salt] as the molecule, how does the IC50 read?
Its IC50 is 0.0424 µM.

How did the IC50 turn out when `Cc1cn(-c2ccc3n(c2=O)CCN(CCOc2ccccc2-c2ccc(C#N)c(C(F)(F)F)c2)C3=O)cn1` [Example 65, 2′-{2-[7-(4-methyl-1H-imidazol-1-yl)-1,6-dioxo-1,3,4,6-tetrahydro-2H-pyrido[1,2-a]pyrazin-2-yl]ethoxy}-3-(trifluoromethyl)biphenyl-4-carbonitrile] was run?
Its IC50 is 0.0461 µM.

Which IC50 does the source give for `Cc1cn(-c2ccc3n(c2=O)CCN(CCOc2cc(C(F)(F)F)nc4c(Cl)ccc(F)c24)C3=O)cn1` [Example 66, 2-(2-{[8-chloro-5-fluoro-2-(trifluoromethyl)quinolin-4-yl]oxy}ethyl)-7-(4-methyl-1H-imidazol-1-yl)-3,4-dihydro-2H-pyrido[1,2-a]pyrazine-1,6-dione] here?
The IC50 was 0.0524 µM.

With `Cc1cn(-c2ccc3n(c2=O)CCN(CCOc2ccc(F)c(Cl)c2C(F)(F)F)C3=O)cn1` [Example 67, 2-{2-[3-chloro-4-fluoro-2-(trifluoromethyl)phenoxy]ethyl}-7-(4-methyl-1H-imidazol-1-yl)-3,4-dihydro-2H-pyrido[1,2-a]pyrazine-1,6-dione] as the molecule, how does the IC50 read?
The IC50 was 0.0584 µM.
